Key:
[1] = target: LMPTP (Homo sapiens (Human), UniProt P24666); experiment: LMPTP enzyme inhibition assay with pNPP as substrate; format: biochemical; conditions: n = 2; AID 743308; read-out: LMPTP Orthogonal assay IC50
[2] = rodent pharmacokinetics in male C57BL/6 mice (IV, PO, IP); format: in vivo, mouse
Protocol: The inventors also examined ML400 (also described herein as MLS-0472870 or Compound D1) for its rodent pharmacokinetics. The probe Compound D1 was profiled in Male C57BL/6 Mice, with n=3 for each group studied (IV, IP and PO arms). The formulation used was 1.00 mg/mL in DMSO:Tween80:Water=5:5:90, which gave a clear solution. […] Enterohepatic circulation was also observed for this compound. This compound has acceptable parameters for future in vivo studies (see Table 4 and FIG. 13).

[3] = target: LYP-1 (lymphoid phosphatase, LYP) (Homo sapiens (Human), UniProt Q9Y2R2); experiment: LYP-1 phosphatase selectivity dose response assay; format: biochemical
Excerpt: Disclosed herein is a collection of small-molecule inhibitors of the low molecular weight protein tyrosine phosphatase (LMPTP). The assays utilized in the primary and secondary screening were designed to identify allosteric inhibitors of LMPTP. […] The structure of the compounds was further optimized to generate a series of inhibitors of LMPTP-A isoform, with high selectivity over the LMPTP-B isoform, LYP and VHR, and with cellular activity. In an aspect is provided a compound having the formula: […]
LYP-1 and VHR-1 dose response assays to assess selectivity of Compound D1 against these non-homologous phosphatases.

[4] = hepatic microsomal stability, human liver microsomes; format: in vitro ADME
Excerpt: In the course of this investigation many compounds with similar potencies in the LMPTP (OMFP) assay were found. In order to determine which compound would be the best candidate for in vivo studies, an abbreviated ADME panel was ran on these compounds, a tabulation of the most interesting data on this set of compounds is illustrated in Table 3 below. From the hepatic microsome stability data the candidate selected for in vivo studies was Compound D1.
The microsomal stability assay is commonly used to rank compounds according to their metabolic stability. This assay addresses the pharmacologic question of how long the parent compound will remain circulating in plasma within the body.

[5] = aqueous solubility (buffer pH 5.0-7.4, PBS); format: physicochemical; conditions: for solubility: Pion's buffer
[6] = serum alanine transaminase / aspartate transaminase (liver function) in treated mice; format: in vivo, mouse; conditions: treated mice vs vehicle
Protocol: Serum alanine transaminase or aspartate transaminase levels from mice treated with Compound D1 (ML400) or vehicle (mice shown in FIG. 10) were assessed using EnzyChrom Assay Kits from BioAssay Systems.

[7] = male, C57BL/6, mouse, in vivo, iv, […]
[8] = mouse, in vivo, male C57BL/6 mice, IP, 9.69 mg/kg
[9] = mouse, in vivo, male C57BL/6 mice, PO, 29.6 mg/kg

Chain of LYP-1 (lymphoid phosphatase, LYP) (Q9Y2R2 whole entry, species assumed, canonical isoform): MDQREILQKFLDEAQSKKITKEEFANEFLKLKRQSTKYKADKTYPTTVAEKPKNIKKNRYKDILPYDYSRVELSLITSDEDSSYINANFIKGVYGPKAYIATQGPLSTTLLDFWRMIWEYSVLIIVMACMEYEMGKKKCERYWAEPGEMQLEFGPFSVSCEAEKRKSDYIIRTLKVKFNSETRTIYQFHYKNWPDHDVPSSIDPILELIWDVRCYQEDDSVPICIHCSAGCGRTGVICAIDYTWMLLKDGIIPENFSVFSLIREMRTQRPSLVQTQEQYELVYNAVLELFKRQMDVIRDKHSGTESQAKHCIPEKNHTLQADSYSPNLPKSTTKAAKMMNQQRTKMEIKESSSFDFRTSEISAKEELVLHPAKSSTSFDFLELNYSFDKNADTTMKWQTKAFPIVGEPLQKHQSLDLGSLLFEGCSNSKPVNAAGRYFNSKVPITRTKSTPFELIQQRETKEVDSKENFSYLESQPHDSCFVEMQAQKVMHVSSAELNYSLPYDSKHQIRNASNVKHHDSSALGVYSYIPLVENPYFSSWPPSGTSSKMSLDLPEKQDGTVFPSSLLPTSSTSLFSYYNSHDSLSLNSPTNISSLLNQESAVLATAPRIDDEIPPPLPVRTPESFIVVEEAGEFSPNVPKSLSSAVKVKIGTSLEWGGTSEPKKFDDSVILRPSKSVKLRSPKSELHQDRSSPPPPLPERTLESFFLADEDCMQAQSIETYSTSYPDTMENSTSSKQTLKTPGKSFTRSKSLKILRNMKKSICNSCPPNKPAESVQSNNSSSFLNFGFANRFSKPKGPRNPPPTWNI
Chain of LMPTP (P24666 whole entry): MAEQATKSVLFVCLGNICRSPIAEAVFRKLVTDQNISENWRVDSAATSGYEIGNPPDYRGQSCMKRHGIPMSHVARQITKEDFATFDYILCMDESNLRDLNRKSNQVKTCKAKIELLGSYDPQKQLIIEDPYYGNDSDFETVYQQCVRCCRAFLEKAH

IC50 [1]: 3.52 ± 0.33 µM
enterohepatic circulation ([2]; male C57BL/6 mice): observed
Cl (mL/min/kg) ([2]; male C57BL/6 mice, IV, […]): Low clearance
Vdss (L/kg) ([2]; male C57BL/6 mice, IV, […]): large volume of distribution
clearance [2, 7]: 25.8 mL/min/kg
half-life [2, 7]: 39.6 h
Vd ([2]; male, C57BL/6, mouse, in vivo, iv, […], read-out: Vdss): 83.1 L/kg
AUC(0-inf) [2, 8]: 4520 ng·h/mL
Cmax [2, 8]: 365 ng/mL
Tmax [2, 8]: 0.33 h
half-life [2, 8]: 32.5 h
AUC(0-inf) [2, 9]: 6380 ng·h/mL
Cmax [2, 9]: 3210 ng/mL
Tmax [2, 9]: 3.33 h
half-life [2, 9]: 29.2 h
Fold-Selective ([3]; LMPTP over LYP-1): >60-fold
IC50 ([3]; n = 2, AID743309, read-out: Anti-target LYP-1 IC50): > 80 µM
Hepatic Microsome Stability % Remaining @ 1 hr ([4]; Human microsomes, 1 hr): 61.56%
microsomal stability ([4]; human liver microsomes after 1 hour): moderate stability
solubility in PBS ([5]; PBS, versus aqueous buffer): comparable
solubility ([5]; aqueous buffer, pH 5.0): > 112 µg/mL
solubility ([5]; pH 6.2, aqueous buffer): > 112 µg/mL
solubility ([5]; pH 7.4, aqueous buffer): > 112 µg/mL
concentration achieved in aqueous buffer ([5]; pH range of 5.0-7.4): 18-20 ×IC50
liver function (serum alanine transaminase or aspartate transaminase) [6]: does not Affect Liver Function
Compound: COc1ccc(-c2cc(NCCCN3CCCCC3)c3ccccc3n2)cc1 [Compound D1, 2-(4-methoxyphenyl)-N-(3-(piperidin-1-yl)propyl)quinolin-4-amine]
